Data from US8481750B2 (Boehringer Ingelheim International GmbH, priority 2009, dated 2013).
pIC50: −log10 of the molar value.

The molecules below were run against LFA-1 binding to ICAM-1 (Homo sapiens, UniProt P05107+P20701) (assay: Inhibition of LFA-1 binding to ICAM-1 (LFA-1/Biotin-sICAM-1 AlphaScreen molecular assay)). Settings: highest compound concentration 1 μM in 1% DMSO, 37° C., 90 minutes.
Text: Assay to Determine Inhibition of LFA-1 Binding to ICAM-1
This assay protocol is designed to study the direct antagonism, by a test compound, of the interaction of ICAM-1 with the Leukointegrin CD18/CD11a (LFA-1).
The LFA-1/Biotin-sICAM-1 molecular assay measures the ability of test compounds to inhibit binding of LFA-1 to Biotinylated-sICAM using AlphaScreen technology (Ref: Wilson, J, Rossi, C P, Carboni, S, Fremaux, C, Perrin, D, Soto, C, Kosco-Vilbois, M, and Scheer, A: A Homogeneous 384-Well High-Throughput Binding Assay for a TNF Receptor Using Alphascreen Technology. J Biomol Screen 2003; 8:522-532) that uses TS2/4(anti-LFA-1)-custom conjugated AlphaLisa acceptor beads and streptavidin-coated donor beads from PerkinElmer. The assay was performed in white OptiPlates-384 in a volume of 60 μL using assay buffer (Dulbecco's PBS containing calcium and magnesium, 2 mM MgCl2, 0.1 mM PMSF, 0.1% BSA, pH 7.1). To each well, Biotin-sICAM was added followed by purified LFA-1 (in buffer of 50 mM triethylamine, 150 mM NaCl, 1% beta octylglucoside, 2 mM MgCl2 neutralized to pH with 1M Tris-HCl, pH 7.5). For compound testing, compound was added in 5 uL to the above in 25 uL. LFA-1 and Biotin-sICAM-1 were used at concentrations that would yield a signal to background ratio of 8-10. The highest concentration of compound was 1 μM in 1% DMSO. Positive controls were wells without compound containing LFA-1, while blanks were wells without both compound and LFA-1. Plates were mixed and incubated at 37° C. for 90 minutes. This was followed by addition of 15 μL/well TS2/4-congugated acceptor beads diluted in PBS containing 0.1% BSA for a final concentration of 10 μg/mL. The plates were mixed and incubated in the dark for 30 minutes at room temperature followed by addition of 15 μL/well streptavidin-coated donor beads diluted in PBS containing 0.1% BSA at a final concentration of 15 μg/mL. The plates were mixed and incubated in the dark for 60 minutes at room temperature and then read on an EnVision Multilabel Reader using AlphaScreen 384-well OptiPlate protocol.

Chain of LFA-1 binding to ICAM-1 (P20701 26-1170): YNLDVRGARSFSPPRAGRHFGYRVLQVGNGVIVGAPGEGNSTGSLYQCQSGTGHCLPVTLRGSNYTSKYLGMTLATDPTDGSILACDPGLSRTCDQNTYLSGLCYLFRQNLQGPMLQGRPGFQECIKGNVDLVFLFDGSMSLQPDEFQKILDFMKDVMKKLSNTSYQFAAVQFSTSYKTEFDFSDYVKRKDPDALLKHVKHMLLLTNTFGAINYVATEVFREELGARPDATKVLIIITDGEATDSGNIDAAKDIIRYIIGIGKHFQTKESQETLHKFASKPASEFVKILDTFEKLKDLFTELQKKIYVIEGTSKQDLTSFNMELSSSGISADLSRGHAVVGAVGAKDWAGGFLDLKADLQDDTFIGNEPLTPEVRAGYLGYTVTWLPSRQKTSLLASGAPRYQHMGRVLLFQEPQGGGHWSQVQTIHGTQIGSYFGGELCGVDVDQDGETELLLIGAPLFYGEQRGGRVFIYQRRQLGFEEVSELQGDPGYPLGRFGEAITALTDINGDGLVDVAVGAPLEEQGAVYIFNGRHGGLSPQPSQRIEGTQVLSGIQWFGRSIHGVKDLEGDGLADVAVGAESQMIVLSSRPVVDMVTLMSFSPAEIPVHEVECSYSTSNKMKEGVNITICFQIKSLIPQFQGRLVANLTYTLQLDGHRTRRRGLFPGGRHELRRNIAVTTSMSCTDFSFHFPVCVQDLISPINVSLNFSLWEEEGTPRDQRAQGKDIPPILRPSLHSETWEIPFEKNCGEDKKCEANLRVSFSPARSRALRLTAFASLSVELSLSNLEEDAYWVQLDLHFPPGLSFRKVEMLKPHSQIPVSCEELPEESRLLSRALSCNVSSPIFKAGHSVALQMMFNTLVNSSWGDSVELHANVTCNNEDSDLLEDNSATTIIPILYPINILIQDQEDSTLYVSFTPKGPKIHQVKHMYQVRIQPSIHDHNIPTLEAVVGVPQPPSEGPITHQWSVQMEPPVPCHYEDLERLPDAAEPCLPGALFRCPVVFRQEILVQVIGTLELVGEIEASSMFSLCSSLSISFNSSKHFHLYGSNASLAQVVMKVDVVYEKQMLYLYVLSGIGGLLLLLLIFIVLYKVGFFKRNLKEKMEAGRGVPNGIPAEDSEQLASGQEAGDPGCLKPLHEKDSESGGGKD
Chain of LFA-1 binding to ICAM-1 (P05107 23-769): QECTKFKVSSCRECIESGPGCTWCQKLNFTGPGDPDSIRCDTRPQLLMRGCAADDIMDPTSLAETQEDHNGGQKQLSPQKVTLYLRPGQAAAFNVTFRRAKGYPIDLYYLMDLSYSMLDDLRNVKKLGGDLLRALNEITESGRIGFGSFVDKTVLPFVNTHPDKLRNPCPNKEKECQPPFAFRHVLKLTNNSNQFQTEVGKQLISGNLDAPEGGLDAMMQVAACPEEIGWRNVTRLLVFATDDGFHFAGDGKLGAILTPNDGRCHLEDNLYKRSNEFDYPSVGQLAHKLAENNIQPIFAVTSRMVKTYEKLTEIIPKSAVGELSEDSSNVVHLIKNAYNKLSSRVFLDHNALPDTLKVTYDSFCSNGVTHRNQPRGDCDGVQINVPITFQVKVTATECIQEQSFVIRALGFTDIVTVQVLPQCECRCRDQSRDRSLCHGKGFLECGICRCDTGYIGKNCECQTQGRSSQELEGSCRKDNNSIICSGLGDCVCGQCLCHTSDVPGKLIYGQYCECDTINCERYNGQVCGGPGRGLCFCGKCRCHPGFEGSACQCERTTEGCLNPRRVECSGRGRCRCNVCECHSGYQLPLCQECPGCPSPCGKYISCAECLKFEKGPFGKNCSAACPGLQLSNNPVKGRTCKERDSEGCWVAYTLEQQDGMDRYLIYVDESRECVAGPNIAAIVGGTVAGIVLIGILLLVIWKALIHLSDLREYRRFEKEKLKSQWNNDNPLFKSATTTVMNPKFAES

Structure (SMILES)	pIC50
C[C@@]1(Cc2ccc(C#N)cc2)C(=O)N(c2cc(Cl)cc(Cl)c2)c2ncc(C(=O)NC3(C(=O)NC4(c5ccc(C(=O)NCc6ccncc6)cn5)CC4)CC3)n21 [compound 50]	9.01
CN(CCO)C(=O)c1ccc(C2(NC(=O)C3(NC(=O)c4cnc5n4[C@](C)(Cc4ccc(C#N)cc4)C(=O)N5c4cc(Cl)cc(Cl)c4)CC3)CC2)nc1 [compound 154]	9.00
CC(O)CNC(=O)c1cccc(C2(NC(=O)C3(NC(=O)c4cnc5n4[C@](C)(Cc4ccc(C#N)cc4)C(=O)N5c4cc(Cl)cc(Cl)c4)CC3)CC2)n1 (stereo partly shown) [compound 74]	8.85
C[C@H](CO)NC(=O)c1ccc(C2(NC(=O)C3(NC(=O)c4cnc5n4[C@](C)(Cc4ccc(C#N)cc4)C(=O)N5c4cc(Cl)cc(Cl)c4)CC3)CC2)nc1 [compound 141]	9.10
C[C@@]1(Cc2ccc(C#N)cc2)C(=O)N(c2cc(Cl)cc(Cl)c2)c2ncc(C(=O)NC3(C(=O)NC4(c5ccc(C(=O)NCc6cccnc6)cn5)CC4)CC3)n21 [compound 21]	9.09
CN(C)CCNC(=O)c1ccnc(C2(NC(=O)C3(NC(=O)c4cnc5n4[C@](C)(Cc4ccc(C#N)cc4)C(=O)N5c4cc(Cl)cc(Cl)c4)CC3)CC2)c1 [compound 62]	8.96
C[C@@]1(Cc2ccc(C#N)cc2)C(=O)N(c2cc(Cl)cc(Cl)c2)c2ncc(C(=O)NC3(C(=O)NC4(c5ccc(C(=O)N6CCCC(CO)C6)cn5)CC4)CC3)n21 (stereo partly shown) [compound 29]	9.37
C[C@@]1(Cc2ccc(C#N)cc2)C(=O)N(c2cc(Cl)cc(Cl)c2)c2ncc(C(=O)NC3(C(=O)NC4(c5ccc(C(=O)N6CCN(S(C)(=O)=O)CC6)cn5)CC4)CC3)n21 [compound 153]	8.82
C[C@@]1(Cc2ccc(C#N)cc2)C(=O)N(c2cc(Cl)cc(Cl)c2)c2ncc(C(=O)NC3(C(=O)NC4(c5cccc(C(=O)N6CCCC(C(N)=O)C6)n5)CC4)CC3)n21 (stereo partly shown) [compound 23]	8.59
C[C@@]1(Cc2ccc(C#N)cc2)C(=O)N(c2cc(Cl)cc(Cl)c2)c2ncc(C(=O)NC3(C(=O)NC4(c5cccc(C(=O)N6CCC[C@@H]6C(N)=O)n5)CC4)CC3)n21 [compound 67]	8.59
CNC(=O)c1ccc(C2(NC(=O)C3(NC(=O)c4cnc5n4[C@](C)(Cc4ccc(C#N)cc4)C(=O)N5c4cc(Cl)cc(Cl)c4)CC3)CC2)nc1 [compound 140]	8.82
CC(C)(O)CNC(=O)c1ccnc(C2(NC(=O)C3(NC(=O)c4cnc5n4[C@](C)(Cc4ccc(C#N)cc4)C(=O)N5c4cc(Cl)cc(Cl)c4)CC3)CC2)c1 [compound 69]	9.33
CC(O)CNC(=O)c1ccc(C2(NC(=O)C3(NC(=O)c4cnc5n4[C@](C)(Cc4ccc(C#N)cc4)C(=O)N5c4cc(Cl)cc(Cl)c4)CC3)CC2)nc1 (stereo partly shown) [compound 73]	9.43
C[C@@]1(Cc2ccc(C#N)cc2)C(=O)N(c2cc(Cl)cc(Cl)c2)c2ncc(C(=O)NC3(C(=O)NC4(c5ccc(C(=O)N6CCCC6)cn5)CC4)CC3)n21 [compound 119]	9.14
CC(C)(NC(=O)c1ccc(C2(NC(=O)C3(NC(=O)c4cnc5n4[C@](C)(Cc4ccc(C#N)cc4)C(=O)N5c4cc(Cl)cc(Cl)c4)CC3)CC2)nc1)c1ccccc1 [compound 152]	9.21
C[C@H](CO)NC(=O)c1ccnc(C2(NC(=O)C3(NC(=O)c4cnc5n4[C@](C)(Cc4ccc(C#N)cc4)C(=O)N5c4cc(Cl)cc(Cl)c4)CC3)CC2)c1 [compound 49]	9.25
C[C@@]1(Cc2ccc(C#N)cc2)C(=O)N(c2cc(Cl)cc(Cl)c2)c2ncc(C(=O)NC3(C(=O)NC4(c5cccc(C(=O)N6CC(O)C6)n5)CC4)CC3)n21 [compound 51]	9.24
CC(C)(NC(=O)c1cccc(C2(NC(=O)C3(NC(=O)c4cnc5n4[C@](C)(Cc4ccc(C#N)cc4)C(=O)N5c4cc(Cl)cc(Cl)c4)CC3)CC2)n1)c1ccccc1 [compound 167]	9.39
C[C@@]1(Cc2ccc(C#N)cc2)C(=O)N(c2cc(Cl)cc(Cl)c2)c2ncc(C(=O)NC3(C(=O)NC4(c5cccc(C(=O)NCc6ccccn6)n5)CC4)CC3)n21 [compound 92]	8.89
